Test system: subjects with metastatic or surgically unresectable urothelial cancer
Details: all-causality; 8 mg continuous, n = 99

SMILES: COc1cc(OC)cc(N(CCNC(C)C)c2ccc3ncc(-c4cnn(C)c4)nc3c2)c1 [erdafitinib, N-(3,5-dimethoxy-phenyl)-N′-(1-methylethyl)-N-[3-(1-methyl-1H-pyrazol-4-yl)quinoxalin-6-yl]ethane-1,2-diamine]
- Constipation, grade ≥ 3: 1 no.
- Decreased appetite, any grade: 38 no.
- Decreased appetite, grade 1: 18 no.
- Decreased appetite, grade 2: 20 no.
- Decreased appetite, grade ≥ 3: 0 no.
- Diarrhea, any grade: 50 no.
- Diarrhea, grade 1: 31 no.
- Diarrhea, grade 2: 15 no.
- Diarrhea, grade ≥ 3: 4 no.
- Dry eye, any grade: 19 no.
- Dry eye, grade 1: 14 no.
- Dry eye, grade 2: 4 no.
- Dry eye, grade ≥ 3: 1 no.
- Dry mouth, any grade: 45 no.
- Dry mouth, grade 1: 34 no.
- Dry mouth, grade 2: 11 no.
- Dry mouth, grade ≥ 3: 0 no.
- Dry skin, any grade: 32 no.
- Dry skin, grade 1: 24 no.
- Dry skin, grade 2: 8 no.
- Dry skin, grade ≥ 3: 0 no.
- Dysgeusia, any grade: 37 no.
- Dysgeusia, grade 1: 23 no.
- Dysgeusia, grade 2: 13 no.
- Dysgeusia, grade ≥ 3: 1 no.
- Dyspepsia, any grade: 11 no.
- Dyspepsia, grade 1: 10 no.
- Dyspepsia, grade 2: 1 no.
- Dyspepsia, grade ≥ 3: 0 no.
- Dyspnea, any grade: 8 no.
- Dyspnea, grade 1: 4 no.
- Dyspnea, grade 2: 2 no.
- Dyspnea, grade ≥ 3: 2 no.
- Fatigue, any grade: 32 no.
- Fatigue, grade 1: 12 no.
- Fatigue, grade 2: 18 no.
- Fatigue, grade ≥ 3: 2 no.
- Hand-foot syndrome, any grade: 23 no.
- Hand-foot syndrome, grade 1: 6 no.
- Hand-foot syndrome, grade 2: 12 no.
- Hand-foot syndrome, grade ≥ 3: 5 no.
- Hematuria, any grade: 10 no.
- Hematuria, grade 1: 7 no.
- Hematuria, grade 2: 1 no.
- Hematuria, grade ≥ 3: 2 no.
- Hyperphosphatemia, any grade: 76 no.
- Hyperphosphatemia, grade 1: 53 no.
- Hyperphosphatemia, grade 2: 21 no.
- Hyperphosphatemia, grade ≥ 3: 2 no.
- Hypomagnesemia, any grade: 10 no.
- Hypomagnesemia, grade 1: 9 no.
- Hypomagnesemia, grade 2: 1 no.
- Hypomagnesemia, grade ≥ 3: 0 no.
- Hyponatremia, any grade: 12 no.
- Hyponatremia, grade 1: 1 no.
- Hyponatremia, grade 2: 0 no.
- Hyponatremia, grade ≥ 3: 11 no.
- Insomnia, any grade: 7 no.
- Insomnia, grade 1: 4 no.
- Insomnia, grade 2: 3 no.
- Insomnia, grade ≥ 3: 0 no.
- Lacrimation increased, any grade: 11 no.
- Lacrimation increased, grade 1: 8 no.
- Lacrimation increased, grade 2: 3 no.
- Lacrimation increased, grade ≥ 3: 0 no.
- Nail dystrophy, any grade: 16 no.
- Nail dystrophy, grade 1: 5 no.
- Nail dystrophy, grade 2: 5 no.
- Nail dystrophy, grade ≥ 3: 6 no.
- Nausea, any grade: 20 no.
- Nausea, grade 1: 13 no.
- Nausea, grade 2: 6 no.
- Nausea, grade ≥ 3: 1 no.
- Onycholysis, any grade: 18 no.
- Onycholysis, grade 1: 6 no.
- Onycholysis, grade 2: 10 no.
- Onycholysis, grade ≥ 3: 2 no.
- Onychomadesis, any grade: 7 no.
- Onychomadesis, grade 1: 2 no.
- Onychomadesis, grade 2: 5 no.
- Onychomadesis, grade ≥ 3: 0 no.
- Oropharyngeal pain, any grade: 10 no.
- Oropharyngeal pain, grade 1: 8 no.
- Oropharyngeal pain, grade 2: 1 no.
- Oropharyngeal pain, grade ≥ 3: 1 no.
- Pain in extremity, any grade: 12 no.

Source: patent publication US12691112B2, “FGFR tyrosine kinase inhibitors for the treatment of urothelial carcinoma” (Janssen Pharmaceutica NV, priority 2019, dated 2026)
